Values belong to the molecule of their own block, whether it stands above or below them.
Tests used:
Plasma ACE1 = target: T1, Plasma ACE1 (Mus musculus, UniProt P09470); experiment: SELDI-TOF-MS assay of ACE activity in plasma (Ang I substrate, Ang II product); assay type: biochemical; settings: data not shown
T1 construct: Plasma ACE1 converted Ang I (Ang 1-10; 1296.5 m/z) to Ang II; from tissue; host or cells: mouse plasma (crude, 0.5 µl)
T1 sequence (P09470 35-1237 limits assumed): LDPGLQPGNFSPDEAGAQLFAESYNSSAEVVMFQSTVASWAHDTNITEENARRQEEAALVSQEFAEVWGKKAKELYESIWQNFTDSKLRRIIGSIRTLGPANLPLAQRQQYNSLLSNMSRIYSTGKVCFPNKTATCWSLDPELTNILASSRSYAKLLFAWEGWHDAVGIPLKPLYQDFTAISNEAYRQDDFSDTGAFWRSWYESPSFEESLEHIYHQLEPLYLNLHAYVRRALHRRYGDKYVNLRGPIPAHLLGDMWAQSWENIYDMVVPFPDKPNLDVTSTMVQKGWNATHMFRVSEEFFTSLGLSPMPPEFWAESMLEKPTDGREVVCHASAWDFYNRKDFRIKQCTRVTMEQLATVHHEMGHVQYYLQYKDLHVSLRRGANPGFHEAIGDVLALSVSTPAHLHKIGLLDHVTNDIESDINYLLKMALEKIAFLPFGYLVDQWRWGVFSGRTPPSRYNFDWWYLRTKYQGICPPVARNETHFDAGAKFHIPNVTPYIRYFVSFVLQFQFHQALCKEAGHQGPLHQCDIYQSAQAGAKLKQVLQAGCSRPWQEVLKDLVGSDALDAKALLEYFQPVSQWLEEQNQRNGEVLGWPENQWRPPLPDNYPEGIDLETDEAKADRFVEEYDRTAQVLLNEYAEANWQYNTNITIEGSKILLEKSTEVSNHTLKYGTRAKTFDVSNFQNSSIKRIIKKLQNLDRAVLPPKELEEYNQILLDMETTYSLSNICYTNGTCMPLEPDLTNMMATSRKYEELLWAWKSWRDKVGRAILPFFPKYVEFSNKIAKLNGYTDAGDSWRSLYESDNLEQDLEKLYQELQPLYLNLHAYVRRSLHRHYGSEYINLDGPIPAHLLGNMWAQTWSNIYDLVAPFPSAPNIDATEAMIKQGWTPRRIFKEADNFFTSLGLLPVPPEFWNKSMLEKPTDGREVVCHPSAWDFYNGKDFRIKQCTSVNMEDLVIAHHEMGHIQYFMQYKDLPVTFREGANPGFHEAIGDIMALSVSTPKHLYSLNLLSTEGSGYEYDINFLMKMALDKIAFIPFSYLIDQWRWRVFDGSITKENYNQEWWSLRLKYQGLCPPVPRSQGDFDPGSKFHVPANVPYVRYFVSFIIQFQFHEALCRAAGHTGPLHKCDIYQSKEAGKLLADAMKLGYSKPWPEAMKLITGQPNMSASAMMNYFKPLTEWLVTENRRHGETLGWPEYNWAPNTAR

renin = target: T2, renin (Mus musculus, UniProt P06281); experiment: SELDI-TOF-MS assay of renin activity in plasma (AGT substrate; sequential renin and ACE1); assay type: biochemical; settings: AGT + plasma + captopril (10 μM); FIG. 1F
T2 construct: Plasma incubated with AGT (1759, m/z) results in peptides with m/z that matched Ang 1 and Ang II; from tissue; host or cells: mouse plasma (crude, 0.5 µl)
T2 sequence (P06281 72-402): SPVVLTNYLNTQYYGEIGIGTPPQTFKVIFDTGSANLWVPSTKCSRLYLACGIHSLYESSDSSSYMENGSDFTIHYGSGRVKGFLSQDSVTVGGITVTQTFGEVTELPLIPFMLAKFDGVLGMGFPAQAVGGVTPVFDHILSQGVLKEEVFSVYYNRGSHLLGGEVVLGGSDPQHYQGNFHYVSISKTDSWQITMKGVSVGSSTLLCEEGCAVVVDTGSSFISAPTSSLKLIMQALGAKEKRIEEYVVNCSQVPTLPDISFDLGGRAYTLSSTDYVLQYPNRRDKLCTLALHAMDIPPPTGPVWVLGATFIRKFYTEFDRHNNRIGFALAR
Method: For measurement of enzyme activities, substrates (Ang II or AGT) were incubated with plasma or tissue extracts and the peptide products were measured using SELDI-TOF MS. For ACE activity, plasma (0.5-2.5 μl) or tissue extracts (1 μg protein) were incubated in 50 μl MES buffer (50 mM, pH 6.7) containing 2 mM PMSF and varying concentrations of Ang I(0.1-10 μM) at 37° C. One μl of the reaction mixture was spotted onto ProteinChip arrays and analyzed as previously described in Cool, D. R. & Hardiman, A., “C-Terminal sequencing of peptide hormones using carboxypeptidase Y and SELDI-TOF mass spectrometry” Biotechniques 36, 32-34 (2004), incorporated herein by reference. […]. […]

ACE activity (conversion of Ang I to Ang II) (Plasma ACE1; 0.44 mM 1, 10 phenanthroline): blocked
Compound: c1cnc2c(c1)ccc1cccnc12 [1, 10 phenanthroline]

ACE activity (conversion of Ang I to Ang II) (Plasma ACE1; 10 mM EDTA): blocked
Compound: O=C(O)CN(CCN(CC(=O)O)CC(=O)O)CC(=O)O [EDTA]

effect on renin activity (renin): no effect
Compound: C[C@H](CS)C(=O)N1CCC[C@H]1C(=O)O [captopril]

Reference: patent US7332296B2, “Screening assay for enzymes involved in pathophysiology using SELDI-TOF mass spectrometry” (Wright State University, priority 2004, dated 2008)
